The values below come from patent US20240099994A1, “LONG-ACTING INJECTABLE FORMULATIONS OF KETAMINE PAMOATE SALTS” (ALAR PHARMACEUTICAL INC., priority 2019, published 2024).

The structures appear in SMILES notation. Where a name gives a salt, the structure may show the parent alone. Read-outs that look alike come from different tables or passages of the source.

Series [1] in a line: Intrinsic dissolution rate, rotating disk method (USP Chapter 1087). The conditions noted are these: for Intrinsic dissolution rate: 50 rpm, average of three samples; for BCS solubility classification: pH 7.4 medium. It counts as physicochemical. The procedure: The intrinsic dissolution rate of the crystal and amorphous forms of ketamine pamoate salts was determined by using the intrinsic dissolution rotating disk method described in Chapter 1087 of the U.S. Pharmacopeia under the conditions of medium pH as 1.2, 4.5, 6.8 or 7.4, medium volume as 900 mL, rotating speed as 50 rpm, medium temperature as 37° C., and detection wavelength as 210 nm. The results were shown in Tables 7 and 8 and FIGS. 27 to 29.

The test system of series [2] is DEX-induced depression-like animal model. Description: Forced swimming test (FST) in dexamethasone (DEX)-induced depression-like animal model. In kind it is in vivo, ICR mice. Particulars: DEX-treated mice, SC, 120 mg/kg ketamine free-base; for Immobility time on FST: 1 day after administration. The protocol: (§1) FIG. 43 is a diagram illustrating the protocol of dexamethasone (DEX)-induced depression-like animal model to evaluate the antidepressant effects of ketamine HCl (KET), R, S-ketamine pamoate salt (KEP), S-ketamine pamoate salt (S-KEP), and R-ketamine pamoate salt (R-KEP). ICR mice were intraperitoneally injected with saline or DEX at postnatal day 1 to 3 (P1 to P3) with dose decrement of 0.5 mg/kg, 0.3 mg/kg, and 0.1 mg/kg, respectively. The drugs for each group or saline group were administered subcutaneously at day 35 (P35, i.e., dosing day 0, D0), and the forced swimming test (FST) were conducted every 10 days from dosing day 1 (D1, P36) to P98. Evaluation of sedation behavior was also conducted by sedation rating scale from the time immediately post injection to dosing day 28 after drug administration.
Depression-like animal model induced by dexamethasone (hereinafter abbreviated as DEX) was used to evaluate the antidepressant effects of ketamine HCl (KET), R, S-ketamine pamoate salt (KEP), S-ketamine pamoate salt (S-KEP), and R-ketamine pamoate salt (R-KEP) at equivalent dose (120 mg/kg ketamine free-base). According to literature, depressive-like behaviors were observed on juvenile mice and adult mice which neonatally exposed to DEX. Protocol of this example was shown in FIG. 43 and described in detail below.
Neonatal ICR mice were intraperitoneally injected with saline or DEX on postnatal day 1, 2, and 3 (P1 to P3) at doses of 0.5 mg/kg, 0.3 mg/kg, and 0.1 mg/kg, respectively. The mice received saline were called as Control group, and the mice received DEX were divided into the groups of KET, KEP, S-KEP, R-KEP and Saline (n=10 to 14 mice in each group). The mice of KET, KEP, S-KEP, and R-KEP groups were subcutaneously injected with KET formulation, the formulation AS04 comprising KEP, the formulation AS06 comprising S-KEP, and the formulation AS07 comprising R-KEP at postnatal day 35, respectively. The KET formulation was 20% (w/w) ketamine HCl dissolved in 0.9% saline. The formulations AS04, AS06 and AS07 were prepared in Example 18. Saline group mice were subcutaneously injected with equal volumes of 0.9% saline.
Antidepressant effects were evaluated by forced swimming test (FST), which performed about every 10 days from the first day (P36) to the 63rd day (P98) after drug administration. All groups of mice were trained for swimming before drug administration. During the FST, mice were individually placed into 5 L glass cylinders (height 27 cm, diameter 18 cm) filled with 4 L of water (23±1° C.). The total duration of immobility time during 5 minutes of FST was observed. Results were presented as mean±SEM. Student's t-test was analyzed with the Saline group (DEX-treated mouse group injected with saline) versus the other groups at each time point. *p<0.05, **p<0.01, ***p<0.001, and ****p<0.0001 indicate significant differences compared to the Saline group.

The next series has as its system ICR mice. Description: Sedation behavior by rodent sedation rating scale. It counts as in vivo. The conditions noted are these: SC, 120 mg/kg ketamine free-base; for Sedation behavior (rodent sedation rating scale): immediately post administration to 28 days. The procedure: as §1
Furthermore, sedation behavior was also evaluated by rodent sedation rating scale (Table 28) immediately post drug administration to 28 days in this study.

For series [3] the following is noted: in water; cited from earlier work.
Series [4] is described as follows: Solubility test (USP guidance) in different pH media.
Setting [5] is: pH 7.4, 1% polysorbate 20 in medium, 37° C.
The mark [6] stands for this setting: pH 4.5, 1% polysorbate 20 in medium, 37° C.
The mark [7] stands for this setting: pH 6.8, 1% polysorbate 20 in medium, 37° C.

For the molecule `CN[C@]1(c2ccccc2Cl)CCCCC1=O.Cl` [S-ketamine HCl, S-ketamine hydrochloride, reference compound], the Intrinsic dissolution rate in series [1] (setting [5]) worked out at 2.248 mg/min/cm^2. In addition, the BCS solubility classification entry in series [1] is given as “High”.
With `CNC1(c2ccccc2Cl)CCCCC1=O` (stereo not drawn) [R,S-ketamine HCl, R, S-ketamine hydrochloride, reference compound], the Intrinsic dissolution rate in series [1] (pH 1.2, 37° C.) stood at 5.329 mg/min/cm^2; in series [1] (setting [6]) it was 3.729 mg/min/cm^2; in series [1] (setting [7]) it was 2.918 mg/min/cm^2; in series [1] (setting [5]), 1.740 mg/min/cm^2. In addition, the “Antidepressant effects on FST after single injection” value (shortened to “Antidepressant effects on FST”) in series [2] is listed as “rapid-onset antidepressant effects”. The “Immobility time on FST” value in series [2] was “reduced the immobility time”. Also, the “Time to full recovery from sedation-related behavior post administration” value with ICR mice stood at 2 h. For the same molecule, the “Sedation behavior (rodent sedation rating scale)” value in the series with ICR mice is “mild sedation-related behavior”. In addition, the Solubility in series [3] is greater than 200000 µg/mL.
On to `CNC1(c2ccccc2Cl)CCCCC1=O.Cl` (stereo not drawn) [R-ketamine HCl, R-ketamine hydrochloride, reference compound], for which, in series [1] (setting [5]), the Intrinsic dissolution rate was 2.356 mg/min/cm^2. Also, the BCS solubility classification result in series [1] is reported as “High”.
As for `CN[C@@]1(c2ccccc2Cl)CCCCC1=O` [R-ketamine pamoate salt (Amorphous, ratio 2:1)], the Intrinsic dissolution rate in series [1] (setting [5]) was 0.021 mg/min/cm^2. In series [1], the BCS solubility classification entry was “Low”. The Solubility in series [4] (pH 1.2 medium, listed as R-ketamine pamoate salt (Ratio 2:1) Amorphous) turned out to be 1150 µg/mL; in series [4] (pH 4.5 medium, listed as R-ketamine pamoate salt (Ratio 2:1) Amorphous), 990 µg/mL; in series [4] (pH 6.8 medium, listed as R-ketamine pamoate salt (Ratio 2:1) Amorphous) it was 640 µg/mL; in series [4] (pH 7.4 medium, listed as R-ketamine pamoate salt (Ratio 2:1) Amorphous), 950 µg/mL.
Turning to `CNC1(c2ccccc2Cl)CCCCC1=O.CNC1(c2ccccc2Cl)CCCCC1=O.O=C(O)c1cc2ccccc2c(Cc2c(O)c(C(=O)O)cc3ccccc23)c1O` [R,S-ketamine pamoate salt (Crystal, ratio 2:1)] [R, S-ketamine pamoate salt], the Intrinsic dissolution rate in series [1] (pH 1.2, 37° C.) was determined as 0.095 mg/min/cm^2; in series [1] (setting [6]), 0.005 mg/min/cm^2; in series [1] (setting [7]), 0.011 mg/min/cm^2; in series [1] (setting [5]) it was 0.012 mg/min/cm^2. Moreover, the “Antidepressant effects on FST” value in series [2] was “rapid-onset antidepressant effects”. In addition, the “Immobility time on FST” value in series [2] is reported as “reduced the immobility time”. Moreover, the “Sedation or other ketamine-related psychotomimetic effects and nervous system disorders post administration” value in the series with ICR mice is recorded as “would not occur”. In addition, the “Sedation behavior (rodent sedation rating scale)” value with ICR mice was “normal behavior”. For the same molecule, the Solubility in series [4] (pH 1.2 medium, listed as R, S-ketamine pamoate salt) was found to be 1680 µg/mL; in series [4] (pH 4.5 medium, listed as R,S-ketamine pamoate salt (Ratio 2:1) Crystal), 1080 µg/mL; in series [4] (pH 6.8 medium), 160 µg/mL; in series [4] (pH 7.4 medium, listed as R,S-ketamine pamoate salt (Ratio 2:1) Crystal), 220 µg/mL.
In series [1] (setting [5]), `CNC1(c2ccccc2Cl)CCCCC1=O.CNC1(c2ccccc2Cl)CCCCC1=O.O=C(O)c1cc2ccccc2c(Cc2c(O)c(C(=O)O)cc3ccccc23)c1O` [R,S-ketamine pamoate salt (Amorphous, ratio 2:1)] [R, S-ketamine pamoate salt] registered an Intrinsic dissolution rate of 0.024 mg/min/cm^2. In addition, the BCS solubility classification entry in series [1] is “Low”. The Solubility in series [4] (pH 1.2 medium, listed as R,S-ketamine pamoate salt (Ratio 2:1) Amorphous) is 1310 µg/mL; in series [4] (pH 4.5 medium, listed as R,S-ketamine pamoate salt (Ratio 2:1) Amorphous) it was 870 µg/mL; in series [4] (pH 6.8 medium), 160 µg/mL; in series [4] (pH 7.4 medium, listed as R,S-ketamine pamoate salt (Ratio 2:1) Amorphous) it was 180 µg/mL.
In the case of `CNC1(c2ccccc2Cl)CCCCC1=O.O=C(O)c1cc2ccccc2c(Cc2c(O)c(C(=O)O)cc3ccccc23)c1O` [R- or S-ketamine pamoate salt], the Solubility in series [4] (pH 1.2 medium) is 720 µg/mL; in series [4] (pH 4.5 medium) it was 450 µg/mL; in series [4] (pH 6.8 medium) it was 70 µg/mL; in series [4] (pH 7.4 medium), 80 µg/mL.
For `CN[C@]1(c2ccccc2Cl)CCCCC1=O` [S-ketamine pamoate salt (Amorphous, ratio 2:1)], the Intrinsic dissolution rate in series [1] (setting [5]) stood at 0.026 mg/min/cm^2. Moreover, the BCS solubility classification entry in series [1] is “Low”. The Solubility in series [4] (pH 1.2 medium, listed as S-ketamine pamoate salt (Ratio 2:1) Amorphous) stood at 1000 µg/mL; in series [4] (pH 4.5 medium, listed as S-ketamine pamoate salt (Ratio 2:1) Amorphous) it was 840 µg/mL; in series [4] (pH 6.8 medium, listed as S-ketamine pamoate salt (Ratio 2:1) Amorphous), 480 µg/mL; in series [4] (pH 7.4 medium, listed as S-ketamine pamoate salt (Ratio 2:1) Amorphous), 580 µg/mL.
Molecule `CN[C@]1(c2ccccc2Cl)CCCCC1=O` [S-ketamine pamoate salt (Crystal, ratio 2:1)] showed an Intrinsic dissolution rate in series [1] (setting [5]) of 0.027 mg/min/cm^2. Also, the BCS solubility classification entry in series [1] was “Low”. For the same molecule, in series [2], the “Antidepressant effects on FST” value is “rapid-onset antidepressant effects”. The “Sedation or other ketamine-related psychotomimetic effects and nervous system disorders post administration” value in the series with ICR mice was “would not occur”. The Solubility was determined as 1240 µg/mL in series [4] (pH 1.2 medium, listed as S-ketamine pamoate salt (Ratio 2:1) Crystal); 1610 µg/mL in series [4] (pH 4.5 medium, listed as S-ketamine pamoate salt (Ratio 2:1) Crystal); 390 µg/mL in series [4] (pH 6.8 medium, listed as S-ketamine pamoate salt (Ratio 2:1) Crystal); 500 µg/mL in series [4] (pH 7.4 medium, listed as S-ketamine pamoate salt (Ratio 2:1) Crystal).
For the molecule `CN[C@@]1(c2ccccc2Cl)CCCCC1=O` [R-ketamine pamoate salt (Crystal, ratio 2:1)], the Intrinsic dissolution rate in series [1] (setting [5]) came out at 0.025 mg/min/cm^2. For the same molecule, the BCS solubility classification result in series [1] is given as “Low”. For the same molecule, the “Antidepressant effects on FST” value in series [2] is “rapid-onset antidepressant effects”. Moreover, the “Sedation or other ketamine-related psychotomimetic effects and nervous system disorders post administration” value in the series with ICR mice is listed as “would not occur”. Besides, the Solubility in series [4] (pH 1.2 medium, listed as R-ketamine pamoate salt (Ratio 2:1) Crystal) was 1090 µg/mL; in series [4] (pH 4.5 medium, listed as R-ketamine pamoate salt (Ratio 2:1) Crystal) it was 1180 µg/mL; in series [4] (pH 6.8 medium, listed as R-ketamine pamoate salt (Ratio 2:1) Crystal), 400 µg/mL; in series [4] (pH 7.4 medium, listed as R-ketamine pamoate salt (Ratio 2:1) Crystal), 510 µg/mL.

By Solubility is commonly meant how much of the substance goes into solution per volume.
